How the values were obtained:
[1] = tested on: p68 RNA helicase; assay: Expression level of mRNA of p68 RNA helicase during differentiation of 3T3L1 cell into fat cell (real-time PCR); type: cell-based; conditions: 3T3L1 cell in differentiation culture medium; pioglitazone final concentration 1 μM; 24 hours after addition; corrected on G3PDH expression
Experimental: To a culture plate (60-mm diameter; Asahi Technoglass), 2 ml of the minimum essential culture medium of DMEM (Gibco) supplemented with 10% fetal bovine serum (Sigma) was added and a culture cell 3T3L1 cell was cultured therein to become confluence. Subsequently, the culture medium was replaced with a differentiation culture medium [the minimum essential culture medium DMEM (Gibco) supplemented with insulin (at a final concentration of 10 μg/ml; Sigma), dexamethazone (at a final concentration of […]; Sigma) and 3-isobutyl-1-[…] (at a final concentration of […]; Sigma)], to which pioglitazone (at a final concentration of 1 μM) as an agent for improving insulin resistance was added or was not added. Then, it was examined as to whether or not the expression level of p68 RNA helicase changed between the culture medium with or without adding pioglitazone. 24 hours after pioglitazone addition, the cell was harvested, to extract RNA using an RNA extraction reagent (ISOGEN; Wako Pure Chemical Co., Ltd.) for reverse transcription with a reverse transcription reaction kit (Thermoscript RT-PCR System; Invitrogen). […]

[2] = tested on: promoter region of p68 RNA helicase gene; assay: Promoter activity of p68 RNA helicase gene, luciferase reporter assay in COS-1 cells; type: cell-based, monkey; conditions: COS-1 cells co-transfected with pGL3-p68-899 bp or pGL3-p68-1184 bp; pioglitazone final concentration 10 μM; 24 hours; corrected by β-galactosidase activity; FIG. 2
Experimental: The culture medium was discarded and the cell was washed with phosphate buffered saline(PBS). Per each well, 80 μl each of lysis solution (100 mM potassium phosphate, pH 7.8, 0.2% Triton X-100) was added, for cell lysis. To 20 μl of the cytolytic solution, 100 μl of a luciferase substrate solution (Wako Pure Chemical Co., Ltd.) was added to assay the luminescence with a chemiluminescence meter (Type ML3000; Dynatech Laboratories). Separately, the β-galactosidase activity of the cytolytic solution was assayed with a kit for detecting the β-galactosidase activity (Galacto-Light Plus™ system; TROPIX), and the resulting value was digitized. This was used as the transfection efficiency of introduced gene, to correct the said luciferase activity per each well. Using primers represented by SEQ ID NOS:14 and 15 designed on the basis of the nucleotide sequence of the promoter of p68 RNA helicase gene as previously reported (Rossler, et al., Nucleic Acids Res., Vol. 28, pp. 932-939, 2000) and the human genome DNA sequence (GenBank accession No. AC009994) and additionally using the human genome DNA (Clontech) as template for PCR [using DNA polymerase (LA Taq DNA polymerase; Takara Shuzo Co., Ltd.), and at 98° C. (5 minutes) and subsequently 35 times of a cycle of 96° C. […] After culturing for 48 hours, the luminescence of luciferase was assayed in the same manner as in Example 2. […]

**Q.** Which results are given for `CCc1ccc(CCOc2ccc(CC3SC(=O)NC3=O)cc2)nc1` (single isomer, unassigned; (+)) [pioglitazone, (+)-5-[4-[2-(5-ethyl-2-pyridinyl)ethoxy]benzyl]-2,4-thiazolidinedione]?
**A.** expression level of p68 RNA helicase compared with the culture medium without pioglitazone addition [1]: about 1.7 fold; promoter activity of p68 RNA helicase gene (luciferase activity) [2]: activated

— patent publication US20050244829A1, “Method of screening insulin resistance inproving drug” (priority 2002, published 2005)
